Results taken from paper PMC6685790 (Nature structural & molecular biology, 2008).

Assays:
GlyR α1^L134A, D86A = GlyR α1^L134A, D86A (Homo sapiens, UniProt P23415, D114A/L162A); assay: Whole-cell recording of substituted GlyR in HEK cells; assay type: cell-based
[1] = system: Zn^2+-activated GlyRs (ZAGs); assay type: cell-based, human; conditions: substituted GlyRs, n = 5; close to ECl
GlyR α1^D114G = GlyR α1^D114G (Homo sapiens, UniProt P23415, D142G); assay: Whole-cell recording of substituted GlyR in HEK cells; assay type: cell-based; conditions: α1^D114G vs WT
Chain of GlyR α1^D114G (P23415 29-457 D142G): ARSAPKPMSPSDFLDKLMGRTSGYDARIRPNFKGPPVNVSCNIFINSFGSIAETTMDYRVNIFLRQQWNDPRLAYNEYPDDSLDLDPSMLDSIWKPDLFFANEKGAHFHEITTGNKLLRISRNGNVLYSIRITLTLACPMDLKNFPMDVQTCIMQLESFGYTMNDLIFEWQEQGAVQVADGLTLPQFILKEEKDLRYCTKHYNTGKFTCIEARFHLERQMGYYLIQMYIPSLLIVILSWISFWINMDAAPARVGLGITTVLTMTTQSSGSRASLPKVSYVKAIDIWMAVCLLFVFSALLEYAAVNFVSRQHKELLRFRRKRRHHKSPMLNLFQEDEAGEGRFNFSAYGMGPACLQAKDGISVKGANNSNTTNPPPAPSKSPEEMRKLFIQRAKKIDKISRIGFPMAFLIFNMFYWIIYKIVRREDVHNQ

Chain of GlyR α1^L134A, D86A (P23415 29-457 D114A/L162A): as the sequence (P23415 29-457 D142G) above, with D86A, G114D, L134A counted along it

| SMILES | Zn^2+ activation (normalised to Gly Imax) (GlyR α1^L134A, D86A; D86A) [%] | Increase of Zn^2+ activation EC50 relative to α1^L134A (GlyR α1^L134A, D86A; D86A vs α1^L134A) [fold] | Reversal potential of Zn^2+-activated currents [1] [mV] | Increase in glycine sensitivity compared to WT (GlyR α1^D114G) [fold] |
| --- | --- | --- | --- | --- |
| [Zn+2] [Zn^2+] | 2.4 ± 1.2 | 15 | 0.4 ± 1.4 | – |
| NCC(=O)O [Glycine, glycine] | – | – | – | 3 |
